Measurements: ChEMBL document CHEMBL3792360, “Antibacterial activity of Mannich bases derived from 2-naphthols, aromatic aldehydes and secondary aliphatic amines” (2016)
Values after ≈ are worked out from the molar mass of the structure shown.

Assays:
Format in all cases: functional
Escherichia coli [1] = assay: Antibacterial activity against Escherichia coli ATCC 35218 after 16 to 20 hrs by broth microdilution method
Escherichia coli [2] = assay: Antibacterial activity against Escherichia coli ATCC 25922 after 16 to 20 hrs by broth microdilution method
Enterococcus faecalis = assay: Antibacterial activity against Enterococcus faecalis ATCC 25912 after 16 to 20 hrs by broth microdilution method
Pseudomonas aeruginosa = assay: Antibacterial activity against Pseudomonas aeruginosa CIP 82118 after 16 to 20 hrs by broth microdilution method
Staphylococcus aureus [3] = assay: Antibacterial activity against Staphylococcus aureus […] after 16 to 20 hrs by broth microdilution method
Enterobacter cloacae = assay: Antibacterial activity against Enterobacter cloacae CIP 103475 after 16 to 20 hrs by broth microdilution method
Citrobacter freundii = assay: Antibacterial activity against Citrobacter freundii CIP 5732 after 16 to 20 hrs by broth microdilution method
Klebsiella pneumoniae = assay: Antibacterial activity against Klebsiella pneumoniae CIP 53153 after 16 to 20 hrs by broth microdilution method
Proteus vulgaris = assay: Antibacterial activity against Proteus vulgaris CIP 104989 after 16 to 20 hrs by broth microdilution method
Staphylococcus aureus [4] = assay: Antibacterial activity against methicillin-resistant Staphylococcus aureus ATCC 43300 after 16 to 20 hrs by broth microdilution method

| SMILES | MIC (Escherichia coli [1]) | MIC (Escherichia coli [2]) | MIC (Enterococcus faecalis) | MIC (Pseudomonas aeruginosa) | MIC (Staphylococcus aureus [3]) | MIC (Enterobacter cloacae) | MIC (Citrobacter freundii) | MIC (Klebsiella pneumoniae) | MIC (Proteus vulgaris) | MIC (Staphylococcus aureus [4]) |
| --- | --- | --- | --- | --- | --- | --- | --- | --- | --- | --- |
| Oc1ccc2ccccc2c1C(c1cccs1)n1nnc2ccccc21 (stereo not given) | > 512 µg/mL | > 512 µg/mL | > 512 µg/mL | > 512 µg/mL | 16 µg/mL (≈ 44.8 µM) | > 512 µg/mL | > 512 µg/mL | > 512 µg/mL | > 512 µg/mL | 16 µg/mL (≈ 44.8 µM) |
| CC1(C)S[C@@H]2[C@H](NC(=O)[C@H](N)c3ccc(O)cc3)C(=O)N2[C@H]1C(=O)O [AMOXICILLIN] | 2 µg/mL (≈ 5.47 µM) | 2 µg/mL (≈ 5.47 µM) | 0.25 µg/mL (≈ 0.684 µM) | > 512 µg/mL | 0.06 µg/mL (≈ 0.164 µM) | 256 µg/mL (≈ 701 µM) | 125 µg/mL (≈ 342 µM) | 256 µg/mL (≈ 701 µM) | 256 µg/mL (≈ 701 µM) | 8 µg/mL (≈ 21.9 µM) |
